Measured values as given in ChEMBL document CHEMBL4130350, “Discovery, mechanism and metabolism studies of 2,3-difluorophenyl-linker-containing PARP1 inhibitors with enhanced in vivo efficacy for cancer therapy” (Eur J Med Chem, 2017).
Values after ≈ are worked out from the molar mass of the structure shown. Active and inactive are the calls of the source. No cut-off for these calls is given here.

Assays:
MDA-MB-436 [1] = test: Antiproliferative activity against human MDA-MB-436 cells after 7 days by CCK8 or SRB assay; format: functional, cell-based; details: MDA-MB-436, 168 h
[2] = Cytotoxicity against BRCA2 deficient Chinese hamster VC8 cells after 3 days by CCK8 or SRB assay; format: functional, cell-based; details: Cricetulus griseus, V-C8, 72 h
V79 = test: Cytotoxicity against BRCA2 expressing Chinese hamster V79 cells after 3 days by CCK8 or SRB assay; format: cell-based; details: Cricetulus griseus, V79, 72 h
[3] = Solubility of the compound in water after 24 hrs by HPLC analysis; format: physicochemical
CAPAN-1 [4] = test: Cell cycle arrest in human Capan1 cells assessed as accumulation at G0/G1 phase at 0.1 uM after 72 hrs by propidium iodide-staining based flow cytometry (reference value: 63.33%); format: functional
CAPAN-1 [5] = test: Cell cycle arrest in human Capan1 cells assessed as accumulation at S phase at 0.1 uM after 72 hrs by propidium iodide-staining based flow cytometry (reference value: 21.42%); format: functional
CAPAN-1 [6] = test: Cell cycle arrest in human Capan1 cells assessed as accumulation at G2/M phase at 0.1 uM after 72 hrs by propidium iodide-staining based flow cytometry (reference value: 15.26%); format: functional
CAPAN-1 [7] = test: Cell cycle arrest in human Capan1 cells assessed as accumulation at G0/G1 phase at 1 uM after 72 hrs by propidium iodide-staining based flow cytometry (reference value: 63.33%); format: functional
CAPAN-1 [8] = test: Cell cycle arrest in human Capan1 cells assessed as accumulation at S phase at 1 uM after 72 hrs by propidium iodide-staining based flow cytometry (reference value: 21.42%); format: functional
CAPAN-1 [9] = test: Cell cycle arrest in human Capan1 cells assessed as accumulation at G2/M phase at 1 uM after 72 hrs by propidium iodide-staining based flow cytometry (reference value: 15.26%); format: functional
MDA-MB-436 [10] = test: Induction of apoptosis in human MDA-MB-436 cells assessed as early apoptotic cells at 0.1 uM after 96 hrs by Annexin V-FITC/propidium iodide double-staining based flow cytometery (reference value: 1.90%); format: functional
MDA-MB-436 [11] = test: Induction of apoptosis in human MDA-MB-436 cells assessed as late apoptotic cells at 0.1 uM after 96 hrs by Annexin V-FITC/propidium iodide double-staining based flow cytometery (reference value: 5.61%); format: functional
MDA-MB-436 [12] = test: Induction of apoptosis in human MDA-MB-436 cells assessed as early apoptotic cells at 1 uM after 96 hrs by Annexin V-FITC/propidium iodide double-staining based flow cytometery (reference value: 1.90%); format: functional
MDA-MB-436 [13] = test: Induction of apoptosis in human MDA-MB-436 cells assessed as late apoptotic cells at 1 uM after 96 hrs by Annexin V-FITC/propidium iodide double-staining based flow cytometery (reference value: 5.61%); format: functional
MDA-MB-436 [14] = test: Induction of apoptosis in human MDA-MB-436 cells assessed as early apoptotic cells at 0.1 uM after 96 hrs in presence of pancaspase inhibitor Z-VAD-FMK by Annexin V-FITC/propidium iodide double-staining based flow cytometery (reference value: 2.32%); format: functional
MDA-MB-436 [15] = test: Induction of apoptosis in human MDA-MB-436 cells assessed as late apoptotic cells at 0.1 uM after 96 hrs in presence of pancaspase inhibitor Z-VAD-FMK by Annexin V-FITC/propidium iodide double-staining based flow cytometery (reference value: 5.11%); format: functional
MDA-MB-436 [16] = test: Induction of apoptosis in human MDA-MB-436 cells assessed as early apoptotic cells at 1 uM after 96 hrs in presence of pancaspase inhibitor Z-VAD-FMK by Annexin V-FITC/propidium iodide double-staining based flow cytometery (reference value: 2.32%); format: functional
MDA-MB-436 [17] = test: Induction of apoptosis in human MDA-MB-436 cells assessed as late apoptotic cells at 1 uM after 96 hrs in presence of pancaspase inhibitor Z-VAD-FMK by Annexin V-FITC/propidium iodide double-staining based flow cytometery (reference value: 5.11%); format: functional
CAPAN-1 [18] = test: Antiproliferative activity against human Capan1 cells after 7 days by CCK8 or SRB assay; format: functional, cell-based; details: CAPAN-1, 168 h
MDA-MB-436 [19] = test: Induction of apoptosis in human MDA-MB-436 cells assessed as caspase-3/7 activation at 0.1 to 1 uM after 72 hrs by Caspase-Glo 3/7 assay; format: functional, cell-based
MDA-MB-436 [20] = test: Antitumor activity against human MDA-MB-436 cells harboring BRCA1 mutant xenografted in nude BALB/cA mouse assessed as tumor growth inhibition at 100 mg/kg, po administered once daily for 21 consecutive days measured twice per week; format: functional; details: MDA-MB-436, po, read-out: TGI
[21] = Half life in Sprague-Dawley rat at 10 mg/kg, iv by LC-MS/MS analysis; format: ADME, organism-based; details: in vivo
[22] = Half life in Sprague-Dawley rat at 20 mg/kg, po by LC-MS/MS analysis; format: ADME, organism-based; details: in vivo
[23] = Clearance in Sprague-Dawley rat at 10 mg/kg, iv by LC-MS/MS analysis; format: ADME, organism-based; details: in vivo
[24] = Volume of distribution in Sprague-Dawley rat at 10 mg/kg, iv by LC-MS/MS analysis; format: ADME, organism-based; details: in vivo
[25] = Cmax in Sprague-Dawley rat at 10 mg/kg, iv by LC-MS/MS analysis; format: ADME, organism-based; set-up: dose 10 mg/kg, route intravenous; details: in vivo
[26] = Cmax in Sprague-Dawley rat at 20 mg/kg, po by LC-MS/MS analysis; format: ADME, organism-based; set-up: dose 20 mg/kg, route oral; details: in vivo
[27] = AUC in Sprague-Dawley rat at 10 mg/kg, iv by LC-MS/MS analysis; format: ADME, organism-based; details: in vivo
[28] = AUC in Sprague-Dawley rat at 20 mg/kg, po by LC-MS/MS analysis; format: ADME, organism-based; details: in vivo
[29] = Oral bioavailability in Sprague-Dawley rat at 20 mg/kg by LC-MS/MS analysis; format: ADME, organism-based; details: in vivo
CAPAN-1 [30] = test: Antitumor activity against human Capan1 cells harboring BRCA2 mutant xenografted in nude BALB/cA mouse assessed as tumor growth inhibition at 0.5 mg/kg, po administered once daily for 21 consecutive days measured twice per week; format: functional; details: CAPAN-1, po, read-out: TGI
[31] = Half life in Sprague-Dawley rat at 1 mg/kg, iv by LC-MS/MS analysis; format: ADME, organism-based; details: in vivo
Rattus norvegicus = test: Half life in Sprague-Dawley rat at 2 mg/kg, po by LC-MS/MS analysis; format: ADME, organism-based; details: in vivo
[32] = Clearance in Sprague-Dawley rat at 1 mg/kg, iv by LC-MS/MS analysis; format: ADME, organism-based; details: in vivo
[33] = Volume of distribution in Sprague-Dawley rat at 1 mg/kg, iv by LC-MS/MS analysis; format: ADME, organism-based; details: in vivo
[34] = Cmax in Sprague-Dawley rat at 1 mg/kg, iv by LC-MS/MS analysis; format: ADME, organism-based; set-up: dose 1 mg/kg, route intravenous; details: in vivo
[35] = Cmax in Sprague-Dawley rat at 2 mg/kg, po by LC-MS/MS analysis; format: ADME, organism-based; set-up: dose 2 mg/kg, route oral; details: in vivo
[36] = AUC in Sprague-Dawley rat at 1 mg/kg, iv by LC-MS/MS analysis; format: ADME, organism-based; details: in vivo
[37] = AUC in Sprague-Dawley rat at 2 mg/kg, po by LC-MS/MS analysis; format: ADME, organism-based; details: in vivo
[38] = Oral bioavailability in Sprague-Dawley rat at 2 mg/kg by LC-MS/MS analysis; format: ADME, organism-based; details: in vivo
[39] = Stability in mouse plasma at 1 uM up to 60 mins by LC-MS/MS analysis; format: ADME, cell-free; details: read-out: Stability
[40] = Protein binding in mouse plasma at 0.5 to 50 uM after 4 hrs by LC-MS/MS analysis; format: ADME, cell-free; details: read-out: PPB (converted)
[41] = Elimination half-life in mouse liver microsomes at 2 uM up to 60 mins by LC-MS/MS analysis; format: ADME, microsome; details: read-out: beta t1/2
[42] = Apparent permeability across apical to basolateral side in human Caco2 cells after 2 hrs by LC-MS/MS analysis; format: ADME, cell-based; details: Caco-2
[43] = Apparent permeability across basolateral to apical side in human Caco2 cells after 2 hrs by LC-MS/MS analysis; format: ADME, cell-based; details: Caco-2
[44] = Apparent permeability across apical to basolateral side in human Caco2 cells assessed as drug recovery at 5631.3 pmol after 2 hrs by LC-MS/MS analysis; format: ADME, cell-based; details: Caco-2, read-out: Drug recovery
[45] = Apparent permeability across basolateral to apical side in human Caco2 cells assessed as drug recovery at 18593.3 pmol after 2 hrs by LC-MS/MS analysis; format: ADME, cell-based; details: Caco-2, read-out: Drug recovery
Mus musculus [46] = test: Toxicity in nude BALB/cA mouse xenografted with human Capan1 cells harboring BRCA2 mutant assessed as mortality at 0.5 mg/kg, po administered once daily for 21 consecutive days measured twice per week; format: organism-based; details: in vivo
Mus musculus [47] = test: Toxicity in nude BALB/cA mouse xenografted with human Capan1 cells harboring BRCA2 mutant assessed as weight loss at 0.5 mg/kg, po administered once daily for 21 consecutive days measured twice per week; format: organism-based; details: in vivo

Compound: O=C(c1cc(Cc2n[nH]c(=O)c3ccccc23)ccc1F)N1CCN(C(=O)C2CC2)CC1 [OLAPARIB]
- IC50 (MDA-MB-436 [1]): 0.0393 µM
- IC50 [2]: 0.566 µM
- IC50 (V79): 10 to 54.2 µM
- solubility at 24 h [3]: 0.104 mg/mL (≈ 239 µM)
- Activity (CAPAN-1 [4]): 51.83%
- Activity (CAPAN-1 [5]): 27.2%
- Activity (CAPAN-1 [6]): 20.91%
- Activity (CAPAN-1 [7]): 22.33%
- Activity (CAPAN-1 [8]): 26.14%
- Activity (CAPAN-1 [9]): 51.54%
- Activity (MDA-MB-436 [10]): 2.5%
- Activity (MDA-MB-436 [11]): 9.78%
- Activity (MDA-MB-436 [12]): 4.15%
- Activity (MDA-MB-436 [13]): 17.75%
- Activity (MDA-MB-436 [14]): 3.3%
- Activity (MDA-MB-436 [15]): 6.52%
- Activity (MDA-MB-436 [16]): 4.79%
- Activity (MDA-MB-436 [17]): 9.97%
- IC50 (CAPAN-1 [18]): 0.399 µM
- Activity (MDA-MB-436 [19]): Active
- inhibition in vivo at 100 mg/kg (MDA-MB-436 [20]): 65%
- half-life [21]: 1.1 h
- half-life [22]: 1 h
- clearance [23]: 1.8 L/h/kg
- Vd [24]: 3 L/kg
- Cmax [25]: 12.3 µg/mL
- Cmax [26]: 2.59 µg/mL
- AUC [27]: 5.5 µg·h/mL
- AUC [28]: 4.99 µg·h/mL
- bioavailability [29]: 45.4%

Compound: Cn1ncnc1[C@H]1c2n[nH]c(=O)c3cc(F)cc(c23)N[C@@H]1c1ccc(F)cc1 [TALAZOPARIB]
- IC50 (MDA-MB-436 [1]): 0.0007 µM
- IC50 [2]: 0.0042 µM
- IC50 (V79): 5.01 µM
- IC50 (CAPAN-1 [18]): 0.0018 µM
- inhibition in vivo at 0.5 mg/kg (CAPAN-1 [30]): 80%
- half-life [31]: 4.6 h
- t1/2 (Rattus norvegicus): 3.4 h
- clearance [32]: 0.2 L/h/kg
- Vd [33]: 1.1 L/kg
- Cmax [34]: 2.06 µg/mL
- Cmax [35]: 3.1 µg/mL
- AUC [36]: 6.54 µg·h/mL
- AUC [37]: 13.2 µg·h/mL
- bioavailability [38]: 104%
- remaining at 1 h, 1 µM [39]: 106%
- fraction unbound at 4 h, up to 50 µM [40]: 0.057
- half-life at 2 µM [41]: > 1 h
- Papp A→B at 2 h [42]: 9 nm/s
- Papp B→A at 2 h [43]: 518 nm/s
- recovery at 2 h [44]: 98.4%
- recovery at 2 h [45]: 108%
- Activity (Mus musculus [46]): Toxic
- Activity (Mus musculus [47]): Toxic
